Here are results for 25 molecules from US5789434A, “Derivatives of substituted 4-biarylbutyric acid as matrix metalloprotease inhibitors” (priority 1995, dated 1998).

The target of assay [1] is T1, MMP-9 (Homo sapiens, UniProt P14780).
T1 construct: from tissue; host or cells: human polymorphonuclear leukocytes (PMN) from whole blood (New York Blood Center), PMA-stimulated supernatant
The assay can be described thus: Thiopeptilide MMP-9 Inhibition Assay. It is filed as biochemical. The settings on record: for pIC50: pH 6.5, x (n) = average of n determinations, read-out: MMP-9: Thiopep. IC50; for inhibition at 5 µM: read-out: MMP-9: Thiopep. % inhibition.

For assay [2], the target named is T2, MMP-3 (Homo sapiens, UniProt P08254).
T2 construct: Truncated Prostromelysin-257 was expressed in a soluble form in E.coli; made in house; host or cells: E. coli
The assay can be described thus: Primary Thiopeptilide MMP-3 Inhibition Assay. The format is biochemical. The settings on record: for pIC50: pH 6.5, 13 nM stromelysin, x (n) = average of n determinations, read-out: MMP-3 Thiopep. IC50; for inhibition at 5 µM: read-out: MMP-3 Thiopep. % inhibition.
Procedure: Enzyme: recombinant stromelysin expressed in E.coli and purified as described above. […] The protocols for the assay of compounds as stromelysin inhibitors was the same as that used for MMP-9 except that the assay buffer was 50 mM MES, pH 6.5 containing 150 mM NaCl, 10 mM CaCl2, 0.005% Brij, and 1% DMSO.

pIC50: −log10 of the molar value. Counter-ions that a name gives are not always drawn. Like-named read-outs stand apart in the source and are kept apart here.

As usually defined, the pIC50 is the IC50 on a negative log10 scale, so that one unit is a factor of ten. The inhibition is the percentage by which the read-out fell short of the control.

T1 sequence (P14780 107-707 limits assumed): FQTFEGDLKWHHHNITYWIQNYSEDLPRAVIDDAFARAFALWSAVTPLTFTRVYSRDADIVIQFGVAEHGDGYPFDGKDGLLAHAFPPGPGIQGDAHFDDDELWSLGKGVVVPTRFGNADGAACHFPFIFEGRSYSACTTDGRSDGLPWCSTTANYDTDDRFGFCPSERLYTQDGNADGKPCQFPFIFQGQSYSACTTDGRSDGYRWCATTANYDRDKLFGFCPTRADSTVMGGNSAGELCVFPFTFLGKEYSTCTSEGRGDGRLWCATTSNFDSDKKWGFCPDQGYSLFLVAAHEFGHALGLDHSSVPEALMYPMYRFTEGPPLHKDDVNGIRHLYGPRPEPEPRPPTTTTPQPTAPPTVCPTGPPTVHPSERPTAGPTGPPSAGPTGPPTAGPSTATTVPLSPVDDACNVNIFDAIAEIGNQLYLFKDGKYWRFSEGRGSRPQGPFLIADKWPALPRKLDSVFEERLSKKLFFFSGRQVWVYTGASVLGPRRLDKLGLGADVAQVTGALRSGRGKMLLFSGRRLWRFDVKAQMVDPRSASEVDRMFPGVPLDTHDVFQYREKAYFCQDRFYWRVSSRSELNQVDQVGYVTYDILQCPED
T2 sequence (P08254 100-274 limits assumed): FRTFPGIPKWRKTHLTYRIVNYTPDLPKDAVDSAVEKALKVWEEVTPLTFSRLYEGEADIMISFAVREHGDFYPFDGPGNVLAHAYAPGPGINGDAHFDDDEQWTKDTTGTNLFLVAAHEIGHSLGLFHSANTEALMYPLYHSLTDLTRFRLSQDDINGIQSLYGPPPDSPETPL

As for `O=C(O)CC(CSc1cccs1)C(=O)c1ccc(-c2ccc(Cl)cc2)cc1` (stereo not drawn) [Example 255, [1,1'-Biphenyl]-4-butanoic acid, 4'-chloro-γ-oxo-β-[(2-thienylthio)methyl]-], the pIC50 is 5.70 in assay [1] and 6.02 in assay [2].
Consider `O=C(CC(NC(c1ccccc1)c1ccccc1)C(=O)O)c1ccc(-c2ccc(Cl)cc2)cc1` (stereo not drawn) [Example 260, [1,1'-Biphenyl]-4-butanoic acid, 4'-chloro-α-[(diphenylmethyl)amino]-γ-oxo-, hydrochloride], for which the inhibition at 5 µM in assay [1] stood at 16%. Also, the pIC50 in assay [2] is 6.28.
As to `O=C(O)CC(CSc1ccccc1)C(=O)c1ccc(-c2ccc(Cl)cc2)cc1` (stereo not drawn) [Example 257, [1,1'-Biphenyl]-4-butanoic acid, 4'-chloro-γ-oxo-β-[(phenylthio)methyl]-], the figures for the pIC50 in assay [1] and in assay [2] were 5.68 and 6.10, respectively.
Take `Nc1ccc(-c2ccc(C(=O)CC(CCc3ccccc3)C(=O)O)cc2)cc1` (stereo not drawn) [Example 136, [1,1'-Biphenyl]-4-butanoic acid, 4'-amino-γ-oxo-α-(2-phenylethyl)-]: in assay [1] (at 5 μM), the inhibition at 5 µM was 50%. For the same molecule, in assay [2], the pIC50 was 5.80.
With `O=C(CC(CCCc1ccccc1)C(=O)O)c1ccc(-c2ccc(Cl)s2)cc1` (stereo not drawn) [Example 68, Benzenepentanoic acid, α-[2-[4-(5-chloro-2-thienyl)phenyl]-2-oxoethyl]-], the figures for the pIC50 in assay [1] and in assay [2] were 6.52 and 6.55, respectively.
The corresponding values for `COc1cccc(SCC(CC(=O)c2ccc(-c3ccc(Cl)cc3)cc2)C(=O)O)c1` (stereo not drawn) [Example 234, [1,1'-Biphenyl]-4-butanoic acid, 4'-chloro-α-[[(3-methoxyphenyl)thio]methyl]-γ-oxo-] are 6.22 and 6.84.
Take `CC(C)CC(CC(=O)c1ccc(-c2ccc(F)cc2)cc1)C(=O)O` (stereo not drawn) [Example 15, [1,1'-Biphenyl]-4-butanoic acid, 4'-fluoro-α-(2-methylpropyl)-γ-oxo-]: in assay [1] (at 5 μM), the inhibition at 5 µM was found to be 0%. The pIC50 in assay [2] was 5.70.
Turning to `O=C(CC(CSc1cccc(Br)c1)C(=O)O)c1ccc(-c2ccc(Cl)cc2)cc1` (stereo not drawn) [Example 228, [1,1'-Biphenyl]-4-butanoic acid, α-[[(3-bromophenyl)thio]methyl]-4'-chloro-γ-oxo-], the results for the pIC50 in assay [1] and in assay [2] were 6.10 and 6.44, respectively.
For `CC(=O)SCC(CC(=O)O)C(=O)c1ccc(-c2ccc(Cl)cc2)cc1` (stereo not drawn) [Example 258, [1,1'-Biphenyl]-4-butanoic acid, β-[(acetylthio)methyl]-4'-chloro-γ-oxo-, reference compound], in that order: 5.68 and 6.09.
Take `CC(C)(C)c1ccc(-c2ccc(C(=O)CC(CCCc3ccccc3)C(=O)O)cc2)cc1` (stereo not drawn) [Example 48, [1,1'-Biphenyl]-4-butanoic acid, 4'-(1,1-dimethylethyl)-γ-oxo-α-(3-phenylpropyl)-]: the values for the inhibition at 5 µM in assay [1] (at 5 μM) and in assay [2] were 15% and 53%, respectively.
In the case of `O=C(CC(CSc1ccc(Cl)c(Cl)c1)C(=O)O)c1ccc(-c2ccc(Cl)cc2)cc1` (stereo not drawn) [Example 216, [1,1'-Biphenyl]-4-butanoic acid, 4'-chloro-α-[[(3,4-dichlorophenyl)thio]methyl]-γ-oxo-], the pIC50 in assay [1] is 6.23; in assay [2] it was 6.11.
On to `O=C(CC(CCCc1ccccc1)C(=O)O)c1ccc(-c2cccs2)cc1` (stereo not drawn) [Example 80, Benzenepentanoic acid, α-[2-oxo-2-[4-(2-thienyl)phenyl]ethyl]-], for which the values for the pIC50 in assay [1] and in assay [2] were 6.10 and 6.33, respectively.
The corresponding values for `O=C(CC(CCCc1ccccc1)C(=O)O)c1ccc(-c2ccc(O)cc2)cc1` (stereo not drawn) [Example 83, [1,1'-Biphenyl]-4-butanoic acid, 4'-hydroxy-γ-oxo-α-(3-phenylpropyl)-] are 5.85 and 6.14.
On to `O=C(CC(CCc1ccccc1)C(=O)O)c1ccc(-c2ccc([N+](=O)[O-])cc2)cc1` (stereo not drawn) [Example 124, [1,1'-Biphenyl]-4-butanoic acid, 4'-nitro-γ-oxo-α-(2-phenylethyl)-], for which the inhibition at 5 µM in assay [1] (at 5 μM) is 28%. Moreover, the pIC50 in assay [2] was 6.74.
In the case of `CN(C)c1ccc(-c2ccc(C(=O)CC(CCCc3ccccc3)C(=O)O)cc2)cc1` (stereo not drawn) [Example 60, [1,1'-Biphenyl]-4-butanoic acid, 4'-(dimethylamino)-γ-oxo-α-(3-phenylpropyl)-], the pIC50 is 6.74 in assay [1] and 6.22 in assay [2].
`CC(CC(=O)O)CC(=O)c1ccc(-c2ccc(Cl)cc2)cc1` (stereo not drawn) [Example 332, [1,1'-Biphenyl]-4-pentanoic acid, 4'-chloro-β-methyl-δ-oxo-, reference compound]: the inhibition at 5 µM is 41% in assay [1] (at 5 μM) and 37% in assay [2].
The corresponding values for `O=C(O)c1ccccc1C(=O)c1ccc(-c2ccc(Cl)cc2)cc1` [Example 287, Benzoic acid, 2-[(4'-chloro[1,1'-biphenyl]-4-yl)carbonyl]-] are 3% and 26%.
Take `O=C(O)CCc1ccc(SCC(CC(=O)c2ccc(-c3ccc(Cl)cc3)cc2)C(=O)O)cc1` (stereo not drawn) [Example 225, [1,1'-Biphenyl]-4-butanoic acid, α-[[[4-(2-carboxyethyl)phenyl]thio]methyl]-4'-chloro--γ-oxo-]: the values for the negative logarithm of the IC50 (pIC50) in assay [1] and in assay [2] were 6.26 and 6.51, respectively.
On to `O=C(O)[C@@H]1CC=CC[C@H]1C(=O)c1ccc(-c2ccc(Cl)cc2)cc1` (relative stereo) [Example 328, 3-Cyclohexene-1-carboxylic acid, 6-[(4'-chloro[1,1'-biphenyl]-4-yl)carbonyl]-, trans-], for which the inhibition at 5 µM in assay [1] (at 5 μM) was determined as 45%; in assay [2], 49%.
Take `O=C(CC(CSc1ccncc1)C(=O)O)c1ccc(-c2ccc(Cl)cc2)cc1` (stereo not drawn) [Example 222, [1,1'-Biphenyl]-4-butanoic acid, 4'-chloro-γ-oxo-α-[(4-pyridinylthio)methyl]-]: the pIC50 was 5.74 in assay [1] and 6.21 in assay [2].
The corresponding values for `O=C(CC(CCCc1ccccc1)C(=O)O)c1ccc(-c2ccc(Cl)cc2)s1` (stereo not drawn) [Example 349, 2-Thiophenebutanoic acid, 5-(4-chlorophenyl)-γ-oxo-α-(3-phenylpropyl)-] are 6.48 and 6.26.
Turning to `O=C(CC(CCCc1ccccc1)C(=O)O)c1ccc(-c2ccc(OCCO)cc2)cc1` (stereo not drawn) [Example 54, [1,1'-Biphenyl]-4-butanoic acid, 4'-(2-hydroxyethoxy)-γ-oxo-α-(3-phenylpropyl)-], the pIC50 is 6.15 in assay [1] and 6.72 in assay [2].
On to `CC(C)CC(CC(=O)c1ccc(-c2ccccc2Cl)cc1)C(=O)O` (stereo not drawn) [Example 18, [1,1'-Biphenyl]-4-butanoic acid, 2'-chloro-α-(2-methylpropyl)-γ-oxo-], for which the figures for the inhibition at 5 µM in assay [1] (at 5 μM) and in assay [2] were 9% and 0.3%, respectively.
`O=C(CC(CCCc1ccccc1)C(=O)O)c1ccc(-c2ccsc2)cc1` (stereo not drawn) [Example 76, Benzenepentanoic acid, α-[2-oxo-2-[4-(3-thienyl)phenyl]ethyl]-]: the results for the negative-log IC50 (pIC50) in assay [1] and in assay [2] were 5.74 and 6.00, respectively.
For the molecule `CC(C)(C)OC(=O)NCc1ccc(-c2ccc(C(=O)CC(CCCc3ccccc3)C(=O)O)cc2)cc1` (stereo not drawn) [Example 49, [1,1'-Biphenyl]-4-butanoic acid, 4'-[[[(1,1-dimethylethoxy)carbonyl]amino]methyl]-γ-oxo-α-(3-phenylpropyl)-], the inhibition at 5 µM in assay [1] (at 5 μM) was determined as 13%. Moreover, the pIC50 in assay [2] is 6.12.
